These results are taken from US4415567A, “7α-Methoxycephalosporin derivatives, and antibacterial drugs containing the same” (Eisai Co., Ltd., priority 1980, dated 1983).

Holding throughout (format): cell-based
In experiment [1] the test system is Staphylococcus aureus 209-P. The experiment can be described thus: MIC, standard agar dilution method, Staphylococcus aureus 209-P. The settings on record: Mueller Hinton agar, 18 hours, 37° C. As to the method:
(§1) Minimal inhibitory concentration (MIC) was determined by the standard agar dilution method of the Japan Society of Chemotherapy.
(§2) Compounds were dissolved in appropriate solvents (sterilized water for sodium salts and acetone-water [1:1] for free acids) and serial two-fold dilutions were made. Sodium salt of Cefazolin was chosen as the control compound.
(§3) One-ml aliquots of each dilution were mixed with 9 ml of Mueller Hinton gar in petri-dishes to make agar plates containing the compound at serially diluted concentrations. After agar hardened, plates were put in an incubator at 37° C. for 1.5-2 hours with the lids slightly open to evaporate acetone off the plates.
(§4) Test organisms were grown for 18 hours at 37° C. in Trypticase Soy broth and diluted in saline to approximately 10^6 colony forming units per ml. A loopful of each cell suspension was applied on the agar plate mentioned above and the plates were incubated for 18 hours at 37° C. before MIC was determined.
(§5) The results are shown in Table 2, wherein the compound of Example 5 was selected and used in a form of free carboxylic acid as set forth in the Example 5, Item (a).

Experiment [2] has as its system Escherichia coli NIHJ. The experiment can be described thus: MIC, standard agar dilution method, Escherichia coli NIHJ. As to the method: as §1, §2, §3, §4, §5
For experiment [3], the system named is Klebsielle pneumoniae EK-6. Briefly: MIC, standard agar dilution method, Klebsielle pneumoniae EK-6. On the procedure: as §1, §2, §3, §4, §5
Experiment [4] concerns Proteus morganii EP-14. Briefly: MIC, standard agar dilution method, Proteus morganii EP-14. The settings on record: Morganella morganii, EP14, Mueller Hinton agar, 18 hours, 37° C. As to the method: as §1, §2, §3, §4, §5
The subject of experiment [5] is Pseudomonas aeruginosa EP-172. Briefly: MIC, standard agar dilution method, Pseudomonas aeruginosa EP-172. The settings on record: EP172, Mueller Hinton agar, 18 hours, 37° C. On the procedure:
as §1, §2, §3, §4, §5

The test system of experiment [6] is Serratia marcescens ES-75. The experiment can be described thus: MIC, standard agar dilution method, Serratia marcescens ES-75. The settings on record: ES75, Mueller Hinton agar, 18 hours, 37° C. As to the method: as §1, §2, §3, §4, §5
In experiment [7] the test system is Proteus bulgaris E-18. Briefly: MIC, standard agar dilution method, Proteus bulgaris E-18. The note with it: Mueller Hinton agar, 18 hours, 37° C. On the procedure:
as §1, §2, §3, §4, §5

Setting [8] is: Escherichia coli NIHJ, Mueller Hinton agar, 18 hours, 37° C., read-out: MIC.
The mark [9] stands for this setting: Klebsielle pneumoniae EK-6, Mueller Hinton agar, 18 hours, 37° C., read-out: MIC.

Converted amounts (≈) assume the structure as drawn. Counter-ions that a name gives are not always drawn. Like-named read-outs stand apart in the source and are kept apart here.

Consider `Cc1nnc(SCC2=C(C(=O)O)N3C(=O)[C@@H](NC(=O)Cn4cnnn4)[C@H]3SC2)s1` [Control, Sodium salt of Cefazolin, reference compound], for which the MIC in experiment [1] was 0.4 mg/L; in experiment [2] (Escherichia coli, 18 h), 1.56 mg/L; in experiment [3] (18 h) it was 1.56 mg/L; in experiment [4], above 100 mg/L; in experiment [5], above 100 mg/L; in experiment [6], above 100 mg/L. The molecule also had an MIC in experiment [7] above 3200 mg/L.
`CO[C@@]1(NC(=O)[C@H](NC(=O)c2coc3cc(OC(C)=O)c(OC(C)=O)cc3c2=O)c2ccc(O)cc2)C(=O)N2C(C(=O)O)=C(CSc3nnnn3C)CS[C@@H]21` [Example 1, 7β-[D-2-(6,7-Diacetoxychromone-3-carboxamido)-2-(4-hydroxyphenyl)acetamido]-7α-methoxy-3-(1-methyl-5-tetrazolyl)thiomethyl-3-cephem-4-carboxylic acid]: the MIC in experiment [1] is 1.56 mg/L (≈ 1.96 µM); in experiment [2] (setting [8]) it was 0.4 mg/L (≈ 0.503 µM); in experiment [3] (setting [9]) it was at most 0.1 mg/L; in experiment [4], 3.13 mg/L (≈ 3.93 µM); in experiment [5] it was 0.4 mg/L (≈ 0.503 µM); in experiment [6], at most 0.1 mg/L. For the same molecule, inhibition of growth in experiment [7] (MIC) required 0.4 mg/L (≈ 0.503 µM).
For `CO[C@@]1(NC(=O)[C@H](NC(=O)c2coc3c(OC(C)=O)c(OC(C)=O)ccc3c2=O)c2ccc(O)cc2)C(=O)N2C(C(=O)O)=C(CSc3nnnn3C)CS[C@@H]21` [Example 2], the MIC in experiment [1] is 1.56 mg/L (≈ 1.96 µM); in experiment [2] (setting [8]) it was 3.13 mg/L (≈ 3.93 µM); in experiment [3] (setting [9]), at most 0.1 mg/L; in experiment [4] it was 50 mg/L (≈ 62.8 µM); in experiment [5] it was 0.8 mg/L (≈ 1.01 µM); in experiment [6] it was 0.8 mg/L (≈ 1.01 µM). In experiment [7], the MIC turned out to be 6.25 mg/L (≈ 7.85 µM).
With `CO[C@@]1(NC(=O)[C@H](NC(=O)c2coc3c(O)c(O)ccc3c2=O)c2ccc(O)cc2)C(=O)N2C(C(=O)O)=C(CSc3nnnn3C)CS[C@@H]21` [Example 4, 7β-[D-2-(7,8-Dihydroxychromone-3-carboxyamido)-2-(4-hydroxyphenyl)acetamido]-7α-methoxy-3-(1-methyl-5-tetrazolyl)thiomethyl-3-cephem-4-carboxylic acid], the MIC in experiment [1] is 3.13 mg/L (≈ 4.4 µM); in experiment [2] (setting [8]), 3.13 mg/L (≈ 4.4 µM); in experiment [3] (setting [9]), at most 0.1 mg/L; in experiment [4] it was 50 mg/L (≈ 70.3 µM); in experiment [5], 0.8 mg/L (≈ 1.12 µM); in experiment [6], 0.8 mg/L (≈ 1.12 µM). This molecule showed an MIC in experiment [7] of 3.13 mg/L (≈ 4.4 µM).
Regarding `CO[C@@]1(NC(=O)[C@H](NC(=O)c2coc3cc(O)c(O)cc3c2=O)c2ccccc2)C(=O)N2C(C(=O)O)=C(COC(C)=O)CS[C@@H]21` [Example 5, 7β-[D-2-(6,7-Dihydroxychromone-3-carboxamido)-2-phenylacetamido]-7α-methoxy-3-acetoxymethyl-3-cephem-4-carboxylic acid], the MIC in experiment [1] was 3.13 mg/L (≈ 4.89 µM); in experiment [2] (setting [8]) it was 0.8 mg/L (≈ 1.25 µM); in experiment [3] (setting [9]), at most 0.1 mg/L; in experiment [4] it was 25 mg/L (≈ 39.1 µM); in experiment [5], 3.13 mg/L (≈ 4.89 µM); in experiment [6], 0.2 mg/L (≈ 0.313 µM). Besides, the MIC in experiment [7] was 0.8 mg/L (≈ 1.25 µM).
Take `CO[C@@]1(NC(=O)[C@H](NC(=O)c2coc3cc(O)c(O)cc3c2=O)c2ccccc2)C(=O)N2C(C(=O)O)=C(CSc3nnc(C)s3)CS[C@@H]21` [Example 6, 7β-[D-2-(6,7-Dihydroxychromone-3-carboxyamido)-2-phenylacetamido]-7α-methoxy-3-[2-5-methyl-2-(1,3,4-thiadiazolyl)]thiomethyl-3-cepnem-4-carboxylic acid]: the MIC in experiment [1] is 3.13 mg/L (≈ 4.4 µM); in experiment [2] (setting [8]) it was 0.8 mg/L (≈ 1.12 µM); in experiment [3] (setting [9]), at most 0.1 mg/L; in experiment [4], 12.5 mg/L (≈ 17.6 µM); in experiment [5] it was 3.13 mg/L (≈ 4.4 µM); in experiment [6], at most 0.1 mg/L. Moreover, the MIC in experiment [7] came out at 0.8 mg/L (≈ 1.12 µM).
On to `CO[C@@]1(NC(=O)[C@H](NC(=O)c2coc3c(O)c(O)ccc3c2=O)c2ccccc2)C(=O)N2C(C(=O)O)=C(COC(C)=O)CS[C@@H]21` [Example 7, 7β-[D-2-(7,8-Dihydroxychromone-3-carboxyamido)-2-phenylacetamido]-7α-methoxy-3-acetoxymethyl-3-cephem-4-carboxylic acid], for which the MIC in experiment [1] amounted to 6.25 mg/L (≈ 9.77 µM); in experiment [2] (setting [8]) it was 3.13 mg/L (≈ 4.89 µM); in experiment [3] (setting [9]), 0.2 mg/L (≈ 0.313 µM); in experiment [4] it was 100 mg/L (≈ 156 µM); in experiment [5], 3.13 mg/L (≈ 4.89 µM); in experiment [6], 12.5 mg/L (≈ 19.5 µM). Also, in experiment [7], it took 50 mg/L (≈ 78.2 µM) to inhibit growth (MIC).
As for `CO[C@@]1(NC(=O)[C@H](NC(=O)c2coc3ccccc3c2=O)c2ccc(O)cc2)C(=O)N2C(C(=O)O)=C(CSc3nnnn3C)CS[C@@H]21` [Example 10, 7β-[D-2-(Chromone-3-carboxamido)-2-(4-hydroxyphenyl)acetamido]-7α-methoxy-3-(1-methyl-5-tetrazolyl)thiomethyl-3-cephem-4-carboxylic acid], the MIC in experiment [1] turned out to be 0.4 mg/L (≈ 0.589 µM); in experiment [2] (setting [8]) it was 12.5 mg/L (≈ 18.4 µM); in experiment [3] (setting [9]), 12.5 mg/L (≈ 18.4 µM); in experiment [4], 25 mg/L (≈ 36.8 µM); in experiment [5], 25 mg/L (≈ 36.8 µM); in experiment [6], 12.5 mg/L (≈ 18.4 µM). In experiment [7], this molecule had an MIC of 50 mg/L (≈ 73.6 µM).
As to `CO[C@@]1(NC(=O)[C@H](NC(=O)c2coc3c(C)c(OCc4ccccc4)ccc3c2=O)c2ccccc2)C(=O)N2C(C(=O)O)=C(COC(C)=O)CS[C@@H]21` [Example 13, 7β-[D-2-(7-Benzyloxy-8-methylchromone-3-carboxamido)-2-phenylacetamido]-7α-methoxy-3-acetoxymethyl-3-cephem-4-carboxylic acid], the MIC in experiment [1] was 0.4 mg/L (≈ 0.55 µM); in experiment [2] (setting [8]), 3.13 mg/L (≈ 4.3 µM); in experiment [3] (setting [9]), 3.13 mg/L (≈ 4.3 µM); in experiment [4], 1.56 mg/L (≈ 2.14 µM); in experiment [5] it was 12.5 mg/L (≈ 17.2 µM); in experiment [6], 3.13 mg/L (≈ 4.3 µM). Also, the MIC in experiment [7] amounted to 0.8 mg/L (≈ 1.1 µM).
On to `CO[C@@]1(NC(=O)[C@H](NC(=O)c2coc3cc(O)c(O)cc3c2=O)c2ccc(O)cc2)C(=O)N2C(C(=O)O)=C(CSc3nnnn3CC(=O)O)CS[C@@H]21` [Example 15, 7β-[D-2-(6,7-Dihydroxychromone-3-carboxamido)-2-(4-hydroxyphenyl)acetamido]-7α-methoxy-3-(1-carboxymethyl-5-tetrazolyl)thiomethyl-3-cephem-4-carboxylic acid], for which the MIC in experiment [1] was 6.25 mg/L (≈ 8.27 µM); in experiment [2] (setting [8]), 6.25 mg/L (≈ 8.27 µM); in experiment [3] (setting [9]), at most 0.1 mg/L; in experiment [4], 12.5 mg/L (≈ 16.5 µM); in experiment [5], 3.13 mg/L (≈ 4.14 µM); in experiment [6], 0.4 mg/L (≈ 0.529 µM). For the same molecule, inhibition of growth in experiment [7] (MIC) required 1.56 mg/L (≈ 2.06 µM).
`CO[C@@]1(NC(=O)[C@H](NC(=O)c2coc3c(O)c(O)ccc3c2=O)c2ccc(O)cc2)C(=O)N2C(C(=O)O)=C(CSc3nnnn3CC(=O)O)CS[C@@H]21` [Example 18, 7β-[D-2-(7,8-Dihydroxychromone-3-carboxamido)-2-(4-hydroxyphenyl)acetamido]-7α-methoxy-3-(1-carboxymethyl-5-tetrazolyl)thiomethyl-3-cephem-4-carboxylic acid]: the MIC in experiment [1] came out at 25 mg/L (≈ 33.1 µM); in experiment [2] (setting [8]), 25 mg/L (≈ 33.1 µM); in experiment [3] (setting [9]) it was 0.8 mg/L (≈ 1.06 µM); in experiment [4], 50 mg/L (≈ 66.2 µM); in experiment [5], 6.25 mg/L (≈ 8.27 µM); in experiment [6], 3.13 mg/L (≈ 4.14 µM). In experiment [7], this molecule gave an MIC of 6.25 mg/L (≈ 8.27 µM).
